Values belong to the molecule of their own block, whether it stands above or below them.
How the values were obtained:
SALL4 = assay: Western blot of SALL4: thalidomide with proteasome/NEDD8/UBA1 inhibitor co-treatment; conditions: Kelly, HEK293T, SK-N-DZ cells; thalidomide + 5 µM bortezomib, 5 µM MLN4924 or 0.5 µM MLN7243, 24 h
MRPL3 = assay: TMT proteomics SK-N-DZ cells: MRPL3 abundance; conditions: 5 h vs DMSO, CC-220 0.1 µM
MRPS5 = assay: TMT proteomics SK-N-DZ cells: MRPS5 abundance; conditions: 5 h vs DMSO, CC-220 0.1 µM
ATP5C1 = assay: TMT proteomics SK-N-DZ cells: ATP5C1 abundance; conditions: 5 h vs DMSO, CC-220 0.1 µM
ZFP91 = ZFP91 (Homo sapiens, UniProt Q96JP5+Q96SW2); assay: TMT proteomics SK-N-DZ cells: ZFP91 abundance; conditions: 5 h vs DMSO, pomalidomide 1 µM, lenalidomide 5 µM, CC-220 0.1 µM, dBET57 1 µM
Sequence of ZFP91 (Q96JP5 2-570 limits assumed): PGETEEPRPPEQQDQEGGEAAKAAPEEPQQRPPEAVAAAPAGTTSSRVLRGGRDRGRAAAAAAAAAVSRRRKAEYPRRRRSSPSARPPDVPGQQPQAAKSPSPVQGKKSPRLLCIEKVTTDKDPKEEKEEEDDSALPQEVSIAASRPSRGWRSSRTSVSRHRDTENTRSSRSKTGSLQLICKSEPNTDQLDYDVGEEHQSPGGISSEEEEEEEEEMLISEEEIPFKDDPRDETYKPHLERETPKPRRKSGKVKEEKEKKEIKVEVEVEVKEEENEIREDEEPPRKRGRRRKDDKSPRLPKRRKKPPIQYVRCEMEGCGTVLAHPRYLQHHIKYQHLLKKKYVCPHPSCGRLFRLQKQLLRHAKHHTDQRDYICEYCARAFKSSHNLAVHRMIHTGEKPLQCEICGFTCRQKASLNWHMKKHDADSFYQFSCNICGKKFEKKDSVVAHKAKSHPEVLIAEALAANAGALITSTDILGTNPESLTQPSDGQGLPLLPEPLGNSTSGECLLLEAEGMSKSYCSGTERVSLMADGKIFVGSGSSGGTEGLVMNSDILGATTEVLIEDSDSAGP
Sequence of ZFP91 (Q96SW2 whole entry): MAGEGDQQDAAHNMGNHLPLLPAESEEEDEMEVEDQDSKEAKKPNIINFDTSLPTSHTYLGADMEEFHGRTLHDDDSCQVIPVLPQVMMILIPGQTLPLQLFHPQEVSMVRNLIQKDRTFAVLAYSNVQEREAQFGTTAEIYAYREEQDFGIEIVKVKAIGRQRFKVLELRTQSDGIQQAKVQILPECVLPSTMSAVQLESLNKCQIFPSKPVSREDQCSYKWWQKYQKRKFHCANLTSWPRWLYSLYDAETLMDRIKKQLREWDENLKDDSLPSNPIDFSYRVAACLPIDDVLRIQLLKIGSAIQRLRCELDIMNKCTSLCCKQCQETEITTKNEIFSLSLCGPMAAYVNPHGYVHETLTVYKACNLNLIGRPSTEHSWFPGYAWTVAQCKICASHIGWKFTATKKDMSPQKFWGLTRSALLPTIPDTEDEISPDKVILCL
Sequence of ZFP91 (Q16531 whole entry partner): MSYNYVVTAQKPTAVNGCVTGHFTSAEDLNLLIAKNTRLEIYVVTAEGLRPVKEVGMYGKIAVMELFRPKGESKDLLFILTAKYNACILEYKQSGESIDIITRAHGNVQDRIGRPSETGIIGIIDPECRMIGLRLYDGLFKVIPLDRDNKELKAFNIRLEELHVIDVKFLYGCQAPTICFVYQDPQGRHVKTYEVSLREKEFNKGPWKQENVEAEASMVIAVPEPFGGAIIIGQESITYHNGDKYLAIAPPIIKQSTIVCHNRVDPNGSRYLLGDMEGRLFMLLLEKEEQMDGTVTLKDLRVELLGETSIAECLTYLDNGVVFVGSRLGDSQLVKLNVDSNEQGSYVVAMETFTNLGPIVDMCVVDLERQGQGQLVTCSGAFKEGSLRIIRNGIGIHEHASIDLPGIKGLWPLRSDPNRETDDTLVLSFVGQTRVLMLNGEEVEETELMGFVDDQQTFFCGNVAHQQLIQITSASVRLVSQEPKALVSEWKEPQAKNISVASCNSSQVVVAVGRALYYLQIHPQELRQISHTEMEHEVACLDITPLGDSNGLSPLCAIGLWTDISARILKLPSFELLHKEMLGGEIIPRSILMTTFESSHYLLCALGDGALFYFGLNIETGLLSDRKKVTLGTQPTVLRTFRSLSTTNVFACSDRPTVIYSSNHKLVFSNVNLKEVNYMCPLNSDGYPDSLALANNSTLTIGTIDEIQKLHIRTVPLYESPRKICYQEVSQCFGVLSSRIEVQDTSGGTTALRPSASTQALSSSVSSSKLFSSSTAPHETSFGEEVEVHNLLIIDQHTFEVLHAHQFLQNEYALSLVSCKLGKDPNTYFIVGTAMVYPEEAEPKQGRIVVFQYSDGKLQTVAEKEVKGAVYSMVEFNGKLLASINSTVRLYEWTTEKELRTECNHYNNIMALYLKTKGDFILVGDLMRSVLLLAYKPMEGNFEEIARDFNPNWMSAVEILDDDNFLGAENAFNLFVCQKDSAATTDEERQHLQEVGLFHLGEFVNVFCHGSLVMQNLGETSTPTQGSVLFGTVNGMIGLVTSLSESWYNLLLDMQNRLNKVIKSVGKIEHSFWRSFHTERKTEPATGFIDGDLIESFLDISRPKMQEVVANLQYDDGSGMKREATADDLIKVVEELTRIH

[1] = system: IMiD-dependent neo-substrates; assay: TMT proteomics profiling of IMiD-dependent neo-substrates (hESC, Kelly, SK-N-DZ, MM1s); assay type: cell-based, human; conditions: SK-N-DZ cells, 0.1 µM CC-220, 5 h (Figure 1—figure supplement 1C)
From the text: We established a mass spectrometry-based workflow (Figure 1—figure supplement 1A) to detect IMiD-induced protein degradation in hESC.
Proteins were precipitated using methanol/chloroform.

CISD2 = assay: TMT proteomics SK-N-DZ cells: CISD2 abundance; conditions: 5 h vs DMSO, CC-220 0.1 µM
[2] = biological target: DDB1∆B-CRBN_(Spy-BodipyFL), Q16531;Q96SW2; assay: TR-FRET; conditions: SALL4 ZnF1-2 100 nM, terbium-streptavidin 4 nM, read off a plot
[3] = value at the highest DDB1∆B-CRBN concentration (about 12.8 µM), thalidomide 50 µM, parent: est. 45

Molecule: NS(=O)(=O)OC[C@H]1C[C@@H](Nc2ccnc3cc(-c4cccc(SC(F)(F)F)c4)nn23)[C@H](O)[C@@H]1O [MLN7243]
- effect of co-treatment on IMiD-induced SALL4 degradation (SALL4): abrogated

Molecule: O=C1CC[C@H](N2Cc3c(OCc4ccc(CN5CCOCC5)cc4)cccc3C2=O)C(=O)N1 [CC-220]
- logFC MRPL3 (MRPL3): -0.1878
- logFC MRPS5 (MRPS5): -0.1562
- logFC ATP5C1 (ATP5C1): -0.1591
- logFC ZFP91 (ZFP91): -2.809
- induction of degradation of ZnF targets including SALL4 [1]: effective inducers of ZnF targets including SALL4 degradation
- logFC CISD2 (CISD2): -0.1946

Molecule: CC(C)C[C@H](NC(=O)[C@H](Cc1ccccc1)NC(=O)c1cnccn1)B(O)O [bortezomib]
- effect of co-treatment on IMiD-induced SALL4 degradation (SALL4): abrogated

Other lines, results leading:

- response [2, 3]: 6 520/490
Molecule: _(Strep-BirA)hsSALL4_(378-438) (ZnF1-2) (from UniProt Q9UJQ4) G416N

- response [2, 3]: 45 520/490
- response ([2]; value at the highest lenalidomide dose (log[Len] about -4.4 M), DDB1∆B-CRBN 200 nM, parent: est. 2.6): 1.6 520/490
- response ([2]; value at the highest pomalidomide dose (log[Pom] about -4.4 M), DDB1∆B-CRBN 200 nM, parent: est. 4.1): 2.6 520/490
- response ([2]; value at the highest thalidomide dose (log[Thal] about -4.4 M), DDB1∆B-CRBN 200 nM, parent: est. 3.7): 2.2 520/490
Molecule: _(Strep-BirA)hsSALL4_(378-438) (ZnF1-2) (from UniProt Q9UJQ4) S388N
